Measurements from US9051307B2, “Bipyridyl derivatives” (Merck Patent GmbH, priority 2010, dated 2015).

Target: T1, GST-ALK5 (Homo sapiens, UniProt P36897)
T1 sequence (P36897 34-503): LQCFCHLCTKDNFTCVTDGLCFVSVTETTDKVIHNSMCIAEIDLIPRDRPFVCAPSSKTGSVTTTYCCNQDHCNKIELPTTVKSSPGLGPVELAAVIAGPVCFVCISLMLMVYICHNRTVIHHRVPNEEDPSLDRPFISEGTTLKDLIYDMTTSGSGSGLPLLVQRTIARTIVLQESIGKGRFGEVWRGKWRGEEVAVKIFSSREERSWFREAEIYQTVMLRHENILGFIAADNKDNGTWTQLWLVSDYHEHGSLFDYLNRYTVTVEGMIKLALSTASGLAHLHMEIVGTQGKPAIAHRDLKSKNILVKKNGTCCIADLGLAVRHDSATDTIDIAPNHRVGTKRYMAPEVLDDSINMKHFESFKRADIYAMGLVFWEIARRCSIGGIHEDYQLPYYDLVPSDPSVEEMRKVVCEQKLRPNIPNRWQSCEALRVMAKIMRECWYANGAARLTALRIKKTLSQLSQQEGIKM
Experiment: In-vitro (enzyme) kinase assay, 384-well flashplate, GST-ALK5 with GST-SMAD2 and 33P-ATP (Example 16)
Type: biochemical
Conditions: 31.2 nM GST-ALK5, 439 nM GST-SMAD2, 3 mM ATP, 30° C., 45 min; IC50 classes; read-out: TβR activity (Example 16)
Procedure: In-vitro (Enzyme) Assay for Determination of the Efficacy of Inhibitors of the Inhibition of TGF-Beta-mediated Effects
The kinase assay was carried out as 384-well flashplate assay. 31.2 nM of GST-ALK5, 439 nM of GST-SMAD2 and 3 mM of ATP (with 0.3 μCi of ^33P-ATP/well) were incubated in a total volume of 35 μl (20 mM of HEPES, 10 mM of MgCl2, 5 mM of MnCl2, 1 mM of DTT, 0.1% of BSA, pH 7.4) without or with test substance (5-10 concentrations) at 30° C. for 45 min. The reaction was stopped using 25 μl of 200 mM EDTA solution, filtered with suction at room temperature after 30 min, and the wells were washed with 3 times 100 μl of 0.9% NaCl solution. Radioactivity was measured in the TopCount. The IC50 values were calculated using RS1.

SMILES	IC50
CCOc1cc(Nc2cncc(-c3ccnc(-c4ccccc4F)c3)c2)ccn1 [Compound 43, (2-Ethoxy-pyridin-4-yl)-[2′-(2-fluoro-phenyl)-[3,4′]bipyridinyl-5-yl]-amine]	1000 to 10000 nM
Fc1ccccc1-c1cc(-c2cncc(-c3cnc4[nH]c(C(F)(F)F)cc4c3)c2)ccn1 [Compound 42, 2′-(2-Fluoro-phenyl)-5-(2-trifluoromethyl-1H-pyrrolo[2,3-b]pyridin-5-yl)-[3,4′]bipyridinyl]	1000 to 10000 nM
CN1CCC(n2cc(-c3cncc(-c4ccnc(-c5cc(Cl)ccc5F)c4)c3)cn2)CC1 [Compound 37, 2′-(5-Chloro-2-fluoro-phenyl)-5-[1-(1-methyl-piperidin-4-yl)-1H-pyrazol-4-yl]-[3,4′]bipyridinyl]	< 1000 nM
OCCn1cc(-c2cncc(-c3ccnc(-c4cc(F)ccc4F)c3)c2)cn1 [Compound 32, 2-{4-[2′-(2,5-Difluoro-phenyl)-[3,4′]bipyridinyl-5-yl]-pyrazol-1-yl}-ethanol]	< 1000 nM
OCCn1cc(-c2cncc(-c3ccnc(-c4cc(C(F)(F)F)ccc4F)c3)c2)cn1 [Compound 31, 2-{4-[2′-(2-Fluoro-5-trifluoromethyl-phenyl)-[3,4′]bipyridinyl-5-yl]-pyrazol-1-yl}-ethanol]	< 1000 nM
OCCn1cc(-c2cncc(-c3ccnc(-c4cc(Cl)ccc4F)c3)c2)cn1 [Compound 34, 2-{4-[2′-(5-Chloro-2-fluoro-phenyl)-[3,4′]bipyridinyl-5-yl]-pyrazol-1-yl}-ethanol]	< 1000 nM
CCOCc1cnc(C)nc1Nc1cncc(-c2ccnc(-c3ccccc3F)c2)c1 [Compound 45, (5-Ethoxymethyl-2-methyl-pyrimidin-4-yl)-[2′-(2-fluoro-phenyl)-[3,4′]bipyridinyl-5-yl]-amine]	1000 to 10000 nM
Fc1ccc(Cl)cc1-c1cc(-c2cncc(-c3cnn(C4CCNCC4)c3)c2)ccn1 [Compound 18, 2′-(5-Chloro-2-fluoro-phenyl)-5-(1-piperidin-4-yl-1H-pyrazol-4-yl)-[3,4′]bipyridinyl]	< 1000 nM
CN(C)CCCn1cc(-c2cncc(-c3ccnc(-c4cc(Cl)ccc4F)c3)c2)cn1 [Compound 30, (3-{4-[2′-(5-Chloro-2-fluoro-phenyl)-[3,4′]bipyridinyl-5-yl]-pyrazol-1-yl}-propyl)-dimethyl-amine]	< 1000 nM
CN(C)CCCn1cc(-c2cncc(-c3ccnc(-c4cc(F)ccc4F)c3)c2)cn1 [Compound 28, (3-{4-[2′-(2,5-Difluoro-phenyl)-[3,4′]bipyridinyl-5-yl]-pyrazol-1-yl}-propyl)-dimethyl-amine]	< 1000 nM
OCCn1cc(-c2cncc(-c3ccnc(-c4ccccc4F)c3)n2)cn1 [Compound 20, 2-(4-{6-[2-(2-Fluoro-phenyl)-pyridin-4-yl]-pyrazin-2-yl}-pyrazol-1-yl)-ethanol]	< 1000 nM
CN1CCC(n2cc(-c3cncc(-c4ccnc(-c5cc(C(F)(F)F)ccc5F)c4)c3)cn2)CC1 [Compound 36, 2′-(2-Fluoro-5-trifluoromethyl-phenyl)-5-[1-(1-methyl-piperidin-4-yl)-1H-pyrazol-4-yl]-[3,4′]bipyridinyl]	< 1000 nM
Fc1ccccc1-c1cc(-c2cncc(-n3cccn3)c2)ccn1 [Compound 41, 2′-(2-Fluoro-phenyl)-5-pyrazol-1-yl-[3,4′]bipyridinyl]	< 1000 nM
COc1ccc(Nc2cncc(-c3ccnc(-c4ccccc4F)c3)c2)cn1 [Compound 44, [2′-(2-Fluoro-phenyl)-[3,4′]bipyridinyl-5-yl]-(6-methoxy-pyridin-3-yl)-amine]	1000 to 10000 nM
CN(C)CCCn1cc(-c2cncc(-c3ccnc(-c4ccccc4F)c3)c2)cn1 [Compound 29, (3-{4-[2′-(2-Fluoro-phenyl)-[3,4′]bipyridinyl-5-yl]-pyrazol-1-yl}-propyl)-dimethyl-amine]	< 1000 nM

Continued, values first:

IC50	SMILES
< 1000 nM	Fc1ccccc1-c1cc(-c2cncc(-c3cnn(C4CCNCC4)c3)c2)ccn1 [Compound 27, 2′-(2-Fluoro-phenyl)-5-(1-piperidin-4-yl-1H-pyrazol-4-yl)-[3,4′]bipyridinyl]
< 1000 nM	CN1CCC(n2cc(-c3cncc(-c4ccnc(-c5ccccc5F)c4)c3)cn2)CC1 [Compound 24, 2′-(2-Fluoro-phenyl)-5-[1-(1-methyl-piperidin-4-yl)-1H-pyrazol-4-yl]-[3,4′]bipyridinyl]
1000 to 10000 nM	Fc1ccccc1-c1cc(-c2cncc(-c3cnc4ccccc4c3)c2)ccn1 [Compound 39, 2′-(2-Fluoro-phenyl)-5-quinolin-3-yl-[3,4′]bipyridinyl]
< 1000 nM	CN1CCN(CCCn2cc(-c3cncc(-c4ccnc(-c5ccccc5F)c4)c3)cn2)CC1 [Compound 23, 2′-(2-Fluoro-phenyl)-5-{1-[3-(4-methyl-piperazin-1-yl)-propyl]-1H-pyrazol-4-yl}-[3,4′]bipyridinyl]
< 1000 nM	CN1CCN(c2ccc(-c3cncc(-c4ccnc(-c5ccccc5F)c4)c3)cn2)CC1 [Compound 25, 2″-(2-Fluoro-phenyl)-6-(4-methyl-piperazin-1-yl)-[3,3′;5′,4″]terpyridine]
< 1000 nM	Fc1ccccc1-c1cc(-c2cncc(-c3cnn(CCCN4CCOCC4)c3)c2)ccn1 [Compound 21, 2′-(2-Fluoro-phenyl)-5-[1-(3-morpholin-4-yl-propyl)-1H-pyrazol-4-yl]-[3,4′]bipyridinyl]
< 1000 nM	OCCCn1cc(-c2cncc(-c3ccnc(-c4ccccc4F)c3)c2)cn1 [Compound 22, 3-{4-[2′-(2-Fluoro-phenyl)-[3,4′]bipyridinyl-5-yl]-pyrazol-1-yl}-propan-1-ol]
< 1000 nM	CN1CCC(n2cc(-c3cncc(-c4ccnc(-c5cc(F)ccc5F)c4)c3)cn2)CC1 [Compound 35, 2′-(2,5-Difluoro-phenyl)-5-[1-(1-methyl-piperidin-4-yl)-1H-pyrazol-4-yl]-[3,4′]bipyridinyl]
< 1000 nM	Fc1ccccc1-c1cc(-c2cncc(-c3ccc(N4CCNCC4)nc3)c2)ccn1 [Compound 26, 2″-(2-Fluoro-phenyl)-6-piperazin-1-yl-[3,3′;5′,4″]terpyridine]
< 1000 nM	OCCn1cc(-c2cncc(-c3ccnc(-c4ccccc4F)c3)c2)cn1 [Compound 33, 2-{4-[2′-(2-Fluoro-phenyl)-[3,4′]bipyridinyl-5-yl]-pyrazol-1-yl}-ethanol]
